In brackets after ≈: the same amount, converted by molar mass.

This experiment deals with Staphylococcus aureus (Isolate ID ATCC 29213). The experiment can be described thus: Bacterial assay: MIC by broth microdilution or agar dilution (CLSI), S. aureus ATCC 29213. The class given is cell-based. The following applies: Staphylococcus aureus, ATCC29213, read-out: S. aureus MIC (μg/mL) Activity Range, S. aureus (ATCC29213). The essentials: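 MICs by CLSI broth microdilution or agar dilution against S. aureus ATCC 29213 and its FtsZ-G196A mutant. Values reported as ranges: A ≤0.25 μg/mL, B >0.25–1.0, C >1.0–16, D >16 μg/mL.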
A general note: Dilution methods test growth across graded concentrations, often in twofold steps.
With `C[C@H](O)[C@@H](Oc1ccc(F)c(C(N)=O)c1F)c1nc(-c2ccc(OC(F)F)cc2)c(Br)o1` [Compound 300, 3-((1R,2S)-1-(5-bromo-4-(4-(difluoromethoxy)phenyl)oxazol-2-yl)-2-hydroxypropoxy)-2,6-difluorobenzamide], the MIC was less than 0.25 µg/mL.
With `CS(=O)(=O)N1CCN(C(=O)OCC(Oc2ccc(F)c(C(N)=O)c2F)c2nc(-c3ccc(C(F)(F)F)cc3)c(Br)o2)C1=O` (stereo not drawn) [Compound 169, 2-(5-bromo-4-(4-(trifluoromethyl)phenyl)oxazol-2-yl)-2-(3-carbamoyl-2,4-difluorophenoxy)ethyl 3-(methylsulfonyl)-2-oxoimidazolidine-1-carboxylate], the MIC fell in the range of 1 to 16 µg/mL (≈ 1.43 to 22.9 µM).
With `NC(=O)c1c(F)ccc(OC(C(=O)O)c2coc(-c3ccc(C(F)(F)F)cc3)n2)c1F` (stereo not drawn) [Compound 132, 2-(3-carbamoyl-2,4-difluorophenoxy)-2-(2-(4-(trifluoromethyl)phenyl)oxazol-4-yl)acetic acid], the MIC is greater than 16 µg/mL.
For `NC(=O)c1c(F)ccc(OC(CNC(=O)c2ccccn2)c2nc(-c3ccc(C(F)(F)F)cc3)c(Br)o2)c1F` (stereo not drawn) [Compound 296, N-(2-(5-bromo-4-(4-(trifluoromethyl)phenyl)oxazol-2-yl)-2-(3-carbamoyl-2,4-difluorophenoxy)ethyl)picolinamide], the MIC was less than 0.25 µg/mL.
For the compound `CCCc1oc(C(C)Oc2ccc(F)c(C(N)=O)c2F)nc1-c1ccc(OC(F)(F)F)cc1` (stereo not drawn) [Compound 20, 2,6-difluoro-3-(1-(5-propyl-4-(4-(trifluoromethoxy)phenyl)oxazol-2-yl)ethoxy)benzamide], the MIC is less than 0.25 µg/mL.
As for `NC(=O)c1c(F)ccc(OC(C(N)=O)c2nc(-c3ccc(Cl)cc3)cs2)c1F` (stereo not drawn) [Compound 40, 3-(2-amino-1-(4-(4-chlorophenyl)thiazol-2-yl)-2-oxoethoxy)-2,6-difluorobenzamide], the MIC was in the range of 1 to 16 µg/mL (≈ 2.36 to 37.8 µM).
As for `NC(=O)c1c(F)ccc(OC(CO)c2nc(-c3ccc(Cl)cc3)c(Br)o2)c1F` (stereo not drawn) [Compound 39, 3-(1-(5-bromo-4-(4-chlorophenyl)oxazol-2-yl)-2-hydroxyethoxy)-2,6-difluorobenzamide], the MIC was less than 0.25 µg/mL.
The result for `NC(=O)c1c(F)ccc(OC(CO)c2nc(-c3ccccc3F)c(Br)o2)c1F` (stereo not drawn) [Compound 229, 3-(1-(5-bromo-4-(2-fluorophenyl)oxazol-2-yl)-2-hydroxyethoxy)-2,6-difluorobenzamide] reads greater than 16 µg/mL; that for `CC(=O)OCC(Oc1ccc(F)c(C(N)=O)c1F)c1nc(-c2ccc(C(F)(F)F)cn2)c(Br)o1` (stereo not drawn) [Compound 78, 2-(5-bromo-4-(5-(trifluoromethyl)pyridin-2-yl)oxazol-2-yl)-2-(3-carbamoyl-2,4-difluorophenoxy)ethyl acetate], greater than 16 µg/mL.
In the case of `CC(C)(C)OC(=O)NCCNC(=O)OCC(Oc1ccc(F)c(C(N)=O)c1F)c1nc(-c2ccc(C(F)(F)F)cc2)c(Br)o1` (stereo not drawn) [Compound 151, 2-(5-bromo-4-(4-(trifluoromethyl)phenyl)oxazol-2-yl)-2-(3-carbamoyl-2,4-difluorophenoxy)ethyl tert-butyl ethane-1,2-diyldicarbamate], the MIC was less than 0.25 µg/mL.
The result for `COc1ccc(-c2coc(C(CO)Oc3ccc(F)c(C(N)=O)c3F)n2)c(F)c1` (stereo not drawn) [Compound 228, 2,6-difluoro-3-(1-(4-(2-fluoro-4-methoxyphenyl)oxazol-2-yl)-2-hydroxyethoxy)benzamide] reads greater than 16 µg/mL; that for `NC(=O)c1c(F)ccc(OC(COCCO)c2nc(-c3ccc(C(F)(F)F)cc3)c(Br)o2)c1F` (stereo not drawn) [Compound 150, 3-(1-(5-bromo-4-(4-(trifluoromethyl)phenyl)oxazol-2-yl)-2-(2-hydroxyethoxy)ethoxy)-2,6-difluorobenzamide], 0.25 to 1 µg/mL (≈ 0.454 to 1.81 µM); that for `NC(=O)c1c(F)ccc(OC(CO)c2nc(-c3cccc(O)c3)c(Br)o2)c1F` (stereo not drawn) [Compound 118, 3-(1-(5-bromo-4-(3-hydroxyphenyl)oxazol-2-yl)-2-hydroxyethoxy)-2,6-difluorobenzamide], greater than 16 µg/mL.
For `COc1cccc(-c2nc(C(COC(C)=O)Oc3ccc(F)c(C(N)=O)c3F)oc2Br)c1` (stereo not drawn) [Compound 108, 2-(5-bromo-4-(3-methoxyphenyl)oxazol-2-yl)-2-(3-carbamoyl-2,4-difluorophenoxy)ethyl acetate] the value was greater than 16 µg/mL; for `NC(=O)c1c(F)ccc(O[C@H](CO)c2nc(-c3ccc(F)cc3)co2)c1F` [Compound 278B, (R)-2,6-difluoro-3-(1-(4-(4-fluorophenyl)oxazol-2-yl)-2-hydroxyethoxy)benzamide], greater than 16 µg/mL.
For `C=CC(Oc1ccc(F)c(C(N)=O)c1F)c1nc(-c2ccc(C(F)(F)F)cc2)c(Br)o1` (stereo not drawn) [Compound 102, 3-((1-(5-bromo-4-(4-(trifluoromethyl)phenyl)oxazol-2-yl)allyl)oxy)-2,6-difluorobenzamide] the value was 1 to 16 µg/mL (≈ 1.99 to 31.8 µM); for `CC(Oc1ccc(F)c(C(N)=O)c1F)c1nc(Br)c(Cl)s1` (stereo not drawn) [Compound 24], 1 to 16 µg/mL (≈ 2.51 to 40.2 µM); for `Cc1cc(CNC(=O)OCC(Oc2ccc(F)c(C(N)=O)c2F)c2nc(-c3ccc(C(F)(F)F)cc3)c(Br)o2)nn1C` (stereo not drawn) [Compound 213, 2-(5-bromo-4-(4-(trifluoromethyl)phenyl)oxazol-2-yl)-2-(3-carbamoyl-2,4-difluorophenoxy)ethyl ((1,5-dimethyl-1H-pyrazol-3-yl)methyl)carbamate], 0.25 to 1 µg/mL (≈ 0.38 to 1.52 µM).
For `Cc1nnc(CCC(Oc2ccc(F)c(C(N)=O)c2F)c2nc(-c3ccc(C(F)(F)F)cc3)c(Br)o2)o1` (stereo not drawn) [Compound 97, 3-(1-(5-bromo-4-(4-(trifluoromethyl)phenyl)oxazol-2-yl)-3-(5-methyl-1,3,4-oxadiazol-2-yl)propoxy)-2,6-difluorobenzamide], the MIC was in the range of 1 to 16 µg/mL (≈ 1.7 to 27.2 µM).
The result for `CC(=O)OCC(Oc1ccc(F)c(C(N)=O)c1F)c1nc(-c2ccc(OC(F)(F)F)cc2)c(Br)o1` (stereo not drawn) [Compound 115, 2-(5-bromo-4-(4-(trifluoromethoxy)phenyl)oxazol-2-yl)-2-(3-carbamoyl-2,4-difluorophenoxy)ethyl acetate] reads less than 0.25 µg/mL; that for `CN(C)CCNC(=O)OCC(Oc1ccc(F)c(C(N)=O)c1F)c1nc(-c2ccc(C(F)(F)F)cc2)c(Br)o1` (stereo not drawn) [Compound 134, 2-(5-bromo-4-(4-(trifluoromethyl)phenyl)oxazol-2-yl)-2-(3-carbamoyl-2,4-difluorophenoxy)ethyl (2-(dimethylamino)ethyl)carbamate], 1 to 16 µg/mL (≈ 1.61 to 25.8 µM); that for `NC(=O)c1c(F)ccc(OC(C(=O)O)c2nc(-c3ccc(Cl)cc3)c(Cl)o2)c1F` (stereo not drawn) [Compound 53, 2-(3-carbamoyl-2,4-difluorophenoxy)-2-(5-chloro-4-(4-chlorophenyl)oxazol-2-yl)acetic acid], greater than 16 µg/mL.
As to `NC(=O)c1c(F)ccc(O[C@H](CO)c2nc(-c3ccc(OC(F)F)cc3)c(Br)o2)c1F` [Compound 273B, (R)-3-(1-(5-bromo-4-(4-(difluoromethoxy)phenyl)oxazol-2-yl)-2-hydroxyethoxy)-2,6-difluorobenzamide], the MIC is less than 0.25 µg/mL.
For `CC(Oc1ccc(F)c(C(N)=O)c1F)c1nc(-c2cnc(C(F)(F)F)nc2)c(Cl)o1` (stereo not drawn) [Compound 55] the value was 1 to 16 µg/mL (≈ 2.23 to 35.7 µM); for `NCCNC(=O)OCC(Oc1ccc(F)c(C(N)=O)c1F)c1nc(-c2ccc(C(F)(F)F)cc2)c(Br)o1` (stereo not drawn) [Compound 152, 2-(5-bromo-4-(4-(trifluoromethyl)phenyl)oxazol-2-yl)-2-(3-carbamoyl-2,4-difluorophenoxy)ethyl (2-aminoethyl)carbamate], 1 to 16 µg/mL (≈ 1.69 to 27 µM); for `NC(=O)c1c(F)ccc(OC(CCC(=O)O)c2nc(-c3ccc(C(F)(F)F)cc3)c(Br)o2)c1F` (stereo not drawn) [Compound 91, 4-(5-bromo-4-(4-(trifluoromethyl)phenyl)oxazol-2-yl)-4-(3-carbamoyl-2,4-difluorophenoxy)butanoic acid], 1 to 16 µg/mL (≈ 1.82 to 29.1 µM).
With `NC(=O)c1c(F)ccc(OC(CO)c2nc(C3CCOCC3)c(Br)o2)c1F` (stereo not drawn) [Compound 187, 3-(1-(5-bromo-4-(tetrahydro-2H-pyran-4-yl)oxazol-2-yl)-2-hydroxyethoxy)-2,6-difluorobenzamide], the MIC was greater than 16 µg/mL.
Take `NC(=O)CCC(Oc1ccc(F)c(C(N)=O)c1F)c1nc(-c2ccc(C(F)(F)F)cc2)c(Br)o1` (stereo not drawn) [Compound 101, 3-(4-amino-1-(5-bromo-4-(4-(trifluoromethyl)phenyl)oxazol-2-yl)-4-oxobutoxy)-2,6-difluorobenzamide]: the MIC was 0.25 to 1 µg/mL (≈ 0.456 to 1.82 µM).
For `NC(=O)c1c(F)ccc(OC(COC(=O)NCc2cccc[n+]2[O-])c2nc(-c3ccc(C(F)(F)F)cc3)c(Br)o2)c1F` (stereo not drawn) [Compound 173, 2-((((2-(5-bromo-4-(4-(trifluoromethyl)phenyl)oxazol-2-yl)-2-(3-carbamoyl-2,4-difluorophenoxy)ethoxy)carbonyl)amino)methyl)pyridine 1-oxide] the value was 0.25 to 1 µg/mL (≈ 0.38 to 1.52 µM).
For `CN(Cc1ccncn1)C(=O)OCC(Oc1ccc(F)c(C(N)=O)c1F)c1nc(-c2ccc(C(F)(F)F)cc2)c(Br)o1` (stereo not drawn) [Compound 197, 2-(5-bromo-4-(4-(trifluoromethyl)phenyl)oxazol-2-yl)-2-(3-carbamoyl-2,4-difluorophenoxy)ethyl methyl(pyrimidin-4-ylmethyl)carbamate] the value was 0.25 to 1 µg/mL (≈ 0.381 to 1.52 µM).
The result for `NC(=O)c1c(F)ccc(OC(CO)c2coc(-c3ccc(C(F)(F)F)cc3)n2)c1F` (stereo not drawn) [Compound 136, 2,6-difluoro-3-(2-hydroxy-1-(2-(4-(trifluoromethyl)phenyl)oxazol-4-yl)ethoxy)benzamide] reads 1 to 16 µg/mL (≈ 2.33 to 37.4 µM); that for `COc1ccc(-c2nc(C(COC(C)=O)Oc3ccc(F)c(C(N)=O)c3F)oc2Br)cc1` (stereo not drawn) [Compound 111, 2-(5-bromo-4-(4-methoxyphenyl)oxazol-2-yl)-2-(3-carbamoyl-2,4-difluorophenoxy)ethyl acetate], 1 to 16 µg/mL; that for `NC(=O)c1c(F)ccc(OC(COC(=O)NCc2cc[n+]([O-])cc2)c2nc(-c3ccc(C(F)(F)F)cc3)c(Br)o2)c1F` (stereo not drawn) [Compound 175, 4-((((2-(5-bromo-4-(4-(trifluoromethyl)phenyl)oxazol-2-yl)-2-(3-carbamoyl-2,4-difluorophenoxy)ethoxy)carbonyl)amino)methyl)pyridine 1-oxide], 1 to 16 µg/mL (≈ 1.52 to 24.3 µM).

(Values after patent US9511073B2, “Aromatic amides and uses thereof” (TAXIS Pharmaceuticals, Inc., priority 2011, dated 2016).)
